# Experimental data: paper PMC6688371, “Effect of the inhaled PDE4 inhibitor CHF6001 on biomarkers of inflammation in COPD” (Respiratory Research, 2019)
# Tested on: markers of inflammation in sputum
# Experiment: Markers of inflammation in induced sputum
# Assay type: in vivo, human
# Conditions: geometric mean (%CV); for α-2-macroglobulin in sputum, post-baseline: mean of Days 20, 26 and 32
# Experimental: Induced sputum was collected pre-dose on Day 1 of each treatment period (for the first treatment period, the sample could be collected up to 10 days prior to Day 1), and 2 h post-dose on Days 20, 26 and 32 (see the Additional file 1 for further detail on sputum and blood analysis methods). Blood samples were taken pre-dose on Day 1, and pre-dose and at 30 min, and 1, 1.5, 2, 3, 4, 6, 8 and 12 h post-dose on Day 32. Other pre-dose assessments on Days 1 and 32 were spirometry (forced expiratory volume in 1 s [FEV1] and forced vital capacity [FVC]), forced oscillometry, and COPD Assessment Test (CAT), with Baseline Dyspnea Index recorded on Day 1 and Transition Dyspnea Index (TDI) on Day 32. Central and peripheral airways mechanics were assessed using forced oscillometry, with the following values determined: inspiratory and expiratory resistance (at 5 and 19 Hz), inspiratory and expiratory reactance, tidal expiratory flow limitation and the percentage of flow limited breaths.
# A patient had to have a minimum of one acceptable sputum sample on Day 20, 26 or 32 to be included in the sputum biomarker evaluation for that treatment period, with the available cell count and biomarker data averaged for each patient. The mean change from baseline (pre-dose on Day 1 of each treatment period) was then compared between treatments using an analysis of covariance (ANCOVA) that included treatment, patient and period as fixed effects, and baseline values as covariate. The mean change from baseline to Day 32 for biomarkers in blood were analysed using the same model as for sputum data. All data were log-transformed before analysis, and the results are presented as ratio of geometric means.
# Effect of CHF6001 on inflammatory biomarkers – Additional file 1 […]
# Analysis of biomarkers and CHF6001 concentration in sputum
# Sputum samples were collected by sputum induction, with patients breathing in nebuli sed hypertonic saline at increasing concentrations (3%, then 4% and finally 5%) while wearing a nose clip. Sputum plugs were isolated, processed by centrifugation and analysed to determine inflammatory cell counts (with total cell counts performed by each s ite’s local laboratory and differential counts at a central laboratory), as follows.
# All solid or dense-looking material was collected from the clear salivary fluid into a stainless steel Petri dish lid. Sputum plugs were then gathered and condensed into one mass. After cleaning the Petri dish, cold Dulbecco's Phosphate -Buffered Saline equal to eight times the weight of the sputum plug was added, then dispersed , mixed and vortexed for 15 sec, before gently agitating on a rolling mixer or rocker for 15 min at room temperature. The resulting mixture was centrifuged at 790 g for 10 min at 4C. A volume of the supernatant equal to four times the weight of the sputum plug was removed and again centrifuged at 1500 g for 10 min at 4C. The clarified supernatant was divided into four equal aliquots, which were shipped in an upright position at –80C to a central laboratory for biomarker assessment. Levels of biomarkers were assessed as follows:
# • α-2-macroglobulin: Meso Scale Diagnostics ELISA method .
# • Interleukin (IL) 6 and 1β, C-X-C motif chemokine ligand 8 (CXCL8) and tumour necrosis factor (TNF) α: Meso Scale Diagnostics Pro-inflammatory v-PLEX Plus kit.
# • Leukotriene B4: High pressure liquid chromatography with tandem mass spectroscopy (HPLC-MS/MS).
# • Myeloperoxidase (MPO): Meso Scale Diagnostics MPO v-PLEX kit.
# • Neutrophil elastase (NE): Luminex MAGPIX System Human Sepsis Magnetic Bead […]
# • Monocyte chemotactic protein (MCP) 1 (also known as C-C motif chemokine ligand [CCL] 2) and macrophage inflammatory protein (MIP) 1β (also known as CCL4):
# Meso Scale Diagnostics Chemokine v-PLEX Plus kit.
# • Matrix metalloproteinase (MMP) 9: Sandwich Immunoassay, using PheraSTAR Plate […]
# • Total protein: Pierce BCA protein assay.
# Validation procedures followed those outlined in the “Guideline on Bioanalytical Method […]
compound,measurement,setting,value
CS(=O)(=O)Nc1ccc(C(=O)O[C@@H](Cc2c(Cl)c[n+]([O-])cc2Cl)c2ccc(OC(F)F)c(OCC3CC3)c2)cc1OCC1CC1 [CHF6001],"C-X-C motif chemokine ligand 8 in sputum, post-baseline",800 µg BID,1828.97 (140.2) pg/mL
same,"Interleukin 1β in sputum, post-baseline",800 µg BID,13.6127 (599.5) pg/mL
same,"Interleukin 6 in sputum, post-baseline",800 µg BID,48.7856 (108.7) pg/mL
same,"Leukotriene B4 in sputum, post-baseline",800 µg BID,872.363 (135.0) pg/mL
same,"Macrophage inflammatory protein 1β in sputum, post-baseline",800 µg BID,68.2963 (153.5) pg/mL
same,"Matrix metalloproteinase 9 in sputum, post-baseline",800 µg BID,175.9824 (292.9) ng/mL
same,"Monocyte chemotactic protein-1 in sputum, post-baseline",800 µg BID,136.8746 (89.9) pg/mL
same,"Myeloperoxidase in sputum, post-baseline",800 µg BID,"476,409.369 (720.8) pg/mL"
same,"Neutrophil elastase in sputum, post-baseline",800 µg BID,"82,640.61 (281.5) pg/mL"
same,"Total protein in sputum, post-baseline",800 µg BID,320.329 (100.5) µg/mL
same,"Tumour necrosis factor α in sputum, post-baseline",800 µg BID,1.595 (265.2) pg/mL
same,"α-2-macroglobulin in sputum, post-baseline",800 µg BID,247.464 (233.4) ng/mL
same,"C-X-C motif chemokine ligand 8 in sputum, post-baseline",1600 µg BID,2104.09 (127.3) pg/mL
same,"Interleukin 1β in sputum, post-baseline",1600 µg BID,13.2876 (377.1) pg/mL
same,"Interleukin 6 in sputum, post-baseline",1600 µg BID,55.8291 (107.5) pg/mL
same,"Leukotriene B4 in sputum, post-baseline",1600 µg BID,678.965 (274.2) pg/mL
same,"Macrophage inflammatory protein 1β in sputum, post-baseline",1600 µg BID,60.8680 (139.7) pg/mL
same,"Matrix metalloproteinase 9 in sputum, post-baseline",1600 µg BID,176.3384 (249.4) ng/mL
same,"Monocyte chemotactic protein-1 in sputum, post-baseline",1600 µg BID,152.5465 (108.2) pg/mL
same,"Myeloperoxidase in sputum, post-baseline",1600 µg BID,"494,342.192 (536.6) pg/mL"
same,"Neutrophil elastase in sputum, post-baseline",1600 µg BID,"84,470.09 (238.7) pg/mL"
same,"Total protein in sputum, post-baseline",1600 µg BID,327.176 (102.5) µg/mL
same,"Tumour necrosis factor α in sputum, post-baseline",1600 µg BID,1.687 (342.0) pg/mL
same,"α-2-macroglobulin in sputum, post-baseline",1600 µg BID,247.877 (270.6) ng/mL
